Tests used:
NCI-H1105 = experiment: Dose response on viability of small cell lung cancer line, resazurin assay; type: cell-based; settings: NCI-H1105, 72 h treatment; read-out: IC50
Description: (§1) IC50 of JWZ-7-7, BI-3812, JQ1, and combinations were calculated based on a dose response curve on three small cell lung cancer lines (FIG. 5). The dose response curve on viability was performed in technical replicates and biological triplicate after treating cells for 72 hours across a broad range of concentrations via serial dilutions. Viable cells were measured after treatment via a resazurin assay. The signal for viable assays was normalized to the DMSO treated negative control. A four-parameter non-linear fit was performed to fit a curve to calculate the IC50 for each of the cell lines. The table below describes the calculated IC50 across JWZ-7-7, JQ1, BI-3812 and combination of JQ1 and BI-3812 after 72 h treatment in technical replicates and biological triplicates.

NCI-H2196 = experiment: as above; type: cell-based; settings: Homo sapiens; NCI-H2196, 72 h treatment
Description: as §1

DMS-79 = experiment: as above; type: cell-based; settings: Homo sapiens; DMS-79, 72 h treatment
Description: as §1

BCL6 and BRD4 = molecular target: T1, BCL6 and BRD4 (Homo sapiens, UniProt O60885+P41182); experiment: BCL6-BRD4 nanoBRET assay in HEK cells; type: cell-based; settings: C- and N-terminally labeled BCL6 with N-terminally labeled BRD4, HEK cells
T1 construct: N-terminal fusion of HaloTag to full-length BCL6; N-terminal fusion of nanoLuc (nano-luciferase) to full-length BRD4 (Promega #N169A); host or cells: HEK293T
Description: The conditions and methods for nanoBRET, a well-recognized assay of in vivo target engagement, are described in PMID 26006698.
A 12-point dose-response curve with 3 technical replicates for each TCIP was carried out and corrected BRET ratios were calculated according to manufacturer assay protocol (Promega #TM439). Data was fit using the R package drc using the four-parameter log-logistic function.

KARPAS422 [1] = experiment: Annexin V / 7-AAD apoptosis assay in KARPAS422 cells; type: cell-based, human
Description: For annexin V assays, 500,000 cells plated at 1 M/mL treated with drug for indicated timepoints and doses were harvested on ice and washed twice in 2.5% FBS/PBS. 2.5 μL of 7-AAD and 2.5 μL of FITC-Annexin V (Biolegend #640922) were added. Cells were incubated for 15 minutes at RT, then immediately measured on a BD Accuri. Gates were drawn based off single-stain and no-stain controls. For cell cycle and TUNEL analysis, cells plated at 1 M/mL were treated with drug for indicated timepoints and doses and pulsed with 10 μM ethynyl-EdU (Thermo #C10424) for 2 hours prior to harvesting on ice. 1 M cells were counted and washed in 2.5% FBS/PBS. Cells were resuspended at 10 M/mL and fixed in 4% PFA, washed, and permeabilized in 0.5% Triton-X100/PBS. […] After washes, the sample was incubated with 2 μL 7-AAD and 5 μL RNAseA for 30 minutes at RT in the dark, washed, and measured on a BD Accuri. Gates were drawn based off single-stain and no-stain controls and kept constant across conditions.

BRD4^BD1 = molecular target: T2, BRD4^BD1 (Homo sapiens, UniProt O60885); experiment: Isothermal calorimetry (ITC), binary titration; type: binding; settings: read-out: KD BRD4:TCIP1
T2 construct: 6xHis-TEV (N, cleaved yes)
Excerpt: The first one or two injections and outliers from instrument noise were routinely excluded. Data was fit to a one-site model using MicroCal LLC Origin software.
One reason for a broadening of the hook effect is the formation of cooperative protein-protein interactions induced by the drug, such as a molecular glue.

OCILY19 = experiment: Cell viability of OCILY19 DLBCL cells; type: cell-based
Description: 30,000 cells were plated in 100 μL media per well of a 96 well plate and treated with drug for indicated times and doses. A resazurin-based indicator of cell health (PrestoBlue, ThermoFisher #P50200) was added for 1.5 hours after which the fluorescence ratio at 560/590 nm was recorded. The background fluorescence was subtracted and the signal was normalized to DMSO-treated cells. EC50 measurements on cell lines were done with 4 biological repeats by separate cell passages maintained by 3 independent investigators. Fit of dose-response curves to data and statistical analysis was performed using drc package in R using the four-parameter log-logistic function.
The level of expression of BCOR, NCOR and SMRT, which engage PRC and HDACs to produce epigenetic suppression of target genes varied among the cell lines and could also contribute to the variation in sensitivity. […] Among the cell lines tested there was no evidence that killing required TP53, nor was there evidence of repression of killing by endogenous BCL2 levels (FIG. 28, Panel B).

BCL6 reporter = BCL6 reporter assay (GFP) in KARPAS422 cells; type: cell-based, human; settings: KARPAS422, 8 hours
Description: KARPAS422 cells were lentivirally transduced with a construct containing the reporter. […] Cells were washed in 2.5% FBS/PBS, 1:250 v/v of 7-AAD was added to distinguish live from dead cells, and harvested for flow cytometry on a BD Accuri. The GFP-positive gate were drawn off non-transduced cells and normalized to cells treated with DMSO.

KARPAS422 [2] = experiment: Cell cycle and TUNEL analysis in KARPAS422 cells; type: cell-based, human
Description: Cells were incubated for 15 minutes at RT, then immediately measured on a BD Accuri. Gates were drawn based off single-stain and no-stain controls. For cell cycle and TUNEL analysis, cells plated at 1 M/mL were treated with drug for indicated timepoints and doses and pulsed with 10 μM ethynyl-EdU (Thermo #C10424) for 2 hours prior to harvesting on ice. 1 M cells were counted and washed in 2.5% FBS/PBS. Cells were resuspended at 10 M/mL and fixed in 4% PFA, washed, and permeabilized in 0.5% Triton-X100/PBS. […] Gates were drawn based off single-stain and no-stain controls and kept constant across conditions. Cancers can evade cell killing by many chemotherapeutics that function only during a specific stage of the cell cycle. […] The assay allows the analysis of the percentage of apoptotic cells in each cell population: G0/G1, G2/M, and S phase cells (FIG. 34). […] The finding implies that unlike many conventional chemotherapeutics, BRD4-BCL6-TCIPs could kill cancer cells without periods of potential insensitivity.

CNC(=O)COc1cc2cc(Nc3nc(N4CCC(C(=O)NCCCCCCCNC(=O)C[C@@H]5N=C(c6ccc(Cl)cc6)c6c(sc(C)c6C)-n6c(C)nnc65)CC4)ncc3Cl)cc(OC)c2n(C)c1=O [JWZ-7-7, (S)-1-(5-chloro-4-((8-methoxy-1-methyl-3-(2-(methylamino)-2-oxoethoxy)-2-oxo-1,2-dihydroquinolin-6-yl)amino)pyrimidin-2-yl)-N-(7-(2-(4-(4-chlorophenyl)-2,3,9-trimethyl-6H-thieno[3,2-f][1,2,4]triazolo[4,3-a][1,4]diazepin-6-yl)acetamido)heptyl)piperidine-4-carboxamide]
IC50 (NCI-H1105): 75 nM
IC50 (NCI-H2196): 81 nM
IC50 (DMS-79): 66 nM
nanoBRET signal of proximity (BCL6 and BRD4): generated a specific signal of proximity

CNC(=O)COc1cc2cc(Nc3nc(N4CCC(C(=O)NCCCCCCCNC(=O)C[C@@H]5N=C(c6ccc(Cl)cc6)c6c(sc(C)c6C)-n6c(C)nnc65)CC4)ncc3Cl)cc(OC)c2n(C)c1=O [TCIP1]
Time to detectable apoptosis (KARPAS422 [1]): 4 to 8 h
Kd (BRD4^BD1): 5080 nM
Response of a DLBCL line with no detectable BCL6 (OCILY19): little or no response
Activation of BCL6 reporter (BCL6 reporter): about 25 fold
EC50 (BCL6 reporter; read-out: EC50 of BCL6 reporter activation): 5 nM
Cell cycle block (KARPAS422 [2]; KARPAS422): both a G1/S and G2/M block
Cell cycle phases in which cell death occurs (TUNEL) (KARPAS422 [2]; KARPAS422, 100 nM): all phases of the cell cycle
